For this assay, the system named is human umbilical vein endothelial cells (HUVEC). The assay can be described thus: HUVEC proliferation assay (VEGF-stimulated, MTT).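 For % inhibition of the proliferation of HUVEC: relative to VEGF-stimulated control minus starvation-medium baseline.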 Conditions: crude reaction mixtures; for % inhibition: Library III, HUVEC proliferation, nominal concentration of 0.5 nM. In kind it is cell-based. On the procedure:
HUVEC Proliferation Assay
This assay determines the ability of a test compound to inhibit the growth factor-stimulated proliferation of human umbilical vein endothelial cells (“HUVEC”). HUVEC cells (passage 3-4, Clonetics, Corp.) were thawed into EGM2 culture medium (Clonetics Corp) in T75 flasks. Fresh EGM2 medium was added to the flasks 24 hours later. Four or five days later, cells were exposed to another culture medium (F12K medium supplemented with 10% fetal bovine serum (FBS), 60 μg/mL endothelial cell growth supplement (ECGS), and 0.1 mg/mL heparin). Exponentially-growing HUVEC cells were used in experiments thereafter. Ten to twelve thousand HUVEC cells were plated in 96-well dishes in 100 μl of rich, culture medium (described above). The cells were allowed to attach for 24 hours in this medium. The medium was then removed by aspiration and 105 μl of starvation media (F12K+1% FBS) was added to each well. After 24 hours, 15 μl of test agent dissolved in 1% DMSO in starvation medium or this vehicle alone was added into each treatment well; the final DMSO concentration was 0.1%. One hour later, 30 μl of VEGF (30 ng/mL) in starvation media was added to all wells except those containing untreated controls; the final VEGF concentration was 6 ng/mL. Cellular proliferation was quantified 72 hours later by MTT dye reduction, at which time cells were exposed for 4 hours MTT (Promega Corp.).
For screening compound library plates, one or two concentrations (one well per concentration) were employed, and the % inhibition was calculated by the following formula:
% inhibition=(control−test)÷(control−starvation)
% inhibition=(control-treated)/(control-starvation)×100

Where [1] appears, read: Library II, Y=S, 0.5 mM (column head; text: nominal 0.5 nM).
Where [2] appears, read: Library II, Y=S, 2 mM (column head; text: nominal 2 nM).
Where [3] appears, read: Library I, Y = CO, nominal concentration of 10 nM.
[4] abbreviates: Library I, Y = NH, nominal concentration of 10 nM.
Setting [5] is: Library I, Y = O, nominal concentration of 10 nM.

These results are taken from patent publication US6534524B1, “Indazole compounds and pharmaceutical compositions for inhibiting protein kinases, and methods for their use” (Agouron Pharmaceuticals, Inc., priority 1999, dated 2003).

`COC(=O)c1cc(NC(=O)c2ccc3c(-c4nc5ccccc5[nH]4)n[nH]c3c2)ccc1O` [drawing 610]: the “% inhibition of the proliferation of HUVEC” value (“% inhibition … of HUVEC” for short) by setting is: under setting [1], 39%; under setting [2], 15%.

Turning to `CCOc1ccccc1CCNC(=O)c1ccccc1Sc1ccc2c(/C=C/c3ccccn3)n[nH]c2c1`, the % inhibition (usually the drop in the measured response relative to a control, in per cent) is 1%. Take `O=C(NCCc1ccccc1)c1ccccc1Sc1ccc2c(/C=C/c3ccccn3)n[nH]c2c1`: the “% inhibition … of HUVEC” value amounted to 15% under setting [1] and 99% under setting [2].

`O=C(NCCc1cccc(F)c1)c1ccccc1Sc1ccc2c(/C=C/c3ccccn3)n[nH]c2c1`: the “% inhibition” value came to 4%.

Take `O=C(NCCCN1CCCCC1)c1ccccc1Sc1ccc2c(/C=C/c3ccccn3)n[nH]c2c1`: the “% inhibition … of HUVEC” value by setting is: under setting [1], 16%; under setting [2], 7%. Taken in the same sequence, the figures for `O=C(O)CNC(=O)CCNC(=O)c1ccccc1Sc1ccc2c(/C=C/c3ccccn3)n[nH]c2c1` were 49% and −9%. On to `Cc1cnc(NC(=O)c2ccccc2Sc2ccc3c(/C=C/c4ccccn4)n[nH]c3c2)s1`, for which the “% inhibition … of HUVEC” value is on record as 20% under setting [1] and 92% under setting [2].

`O=C(Nc1ccc(C(F)(F)F)cc1)c1ccccc1Sc1ccc2c(/C=C/c3ccccn3)n[nH]c2c1`: the “% inhibition” value is −3%. On to `O=C(Nc1ccccc1F)c1ccccc1Sc1ccc2c(/C=C/c3ccccn3)n[nH]c2c1`, for which the “% inhibition” value is listed as 17%. As for `CCOC(=O)C1CCCN(C(=O)c2ccc3c(-c4nc5ccccc5[nH]4)n[nH]c3c2)C1` (stereo not shown), the “% inhibition … of HUVEC” value is, setting by setting: under setting [3], 64%; under setting [4], −8%; under setting [5], 83%.

In the case of `O=C(Nc1cccc2ccccc12)c1ccccc1Sc1ccc2c(/C=C/c3ccccn3)n[nH]c2c1`, the “% inhibition” value is on record as −33%.

For `O=C1CSC(NC(=O)c2ccccc2Sc2ccc3c(/C=C/c4ccccn4)n[nH]c3c2)=N1`, the “% inhibition … of HUVEC” value was 9% under setting [1] and −9% under setting [2]. Take `CC(C)(C)c1ccc(CNC(=O)c2ccccc2Sc2ccc3c(/C=C/c4ccccn4)n[nH]c3c2)cc1`: the “% inhibition” value is recorded as −1%. In the case of `C=CCC(NC(=O)c1ccc2c(-c3nc4ccccc4[nH]3)n[nH]c2c1)c1ccccn1` (stereo not shown) [drawing 609], the “% inhibition … of HUVEC” value reads like this: under setting [1], 37%; under setting [2], 16%. Consider `O=C(NC1CCOC1=O)c1ccccc1Sc1ccc2c(/C=C/c3ccccn3)n[nH]c2c1` (stereo not shown), for which the “% inhibition” value is on record as 3%. Turning to `CCN(CCNC(=O)c1ccccc1Sc1ccc2c(/C=C/c3ccccn3)n[nH]c2c1)c1cccc(C)c1`, the “% inhibition … of HUVEC” value under setting [1] was found to be 17% and the “% inhibition … of HUVEC” value under setting [2] turned out to be 1%.

Regarding `O=C(Nc1cc(Cl)ccc1Cl)c1ccccc1Sc1ccc2c(/C=C/c3ccccn3)n[nH]c2c1`, the “% inhibition” value is reported as 15%. With `O=C(NCCCO)c1ccccc1Sc1ccc2c(/C=C/c3ccccn3)n[nH]c2c1`, the “% inhibition … of HUVEC” value under setting [1] is reported as 24% and the “% inhibition … of HUVEC” value under setting [2] was determined as 31%. With `Cc1cc(NC(=O)c2ccccc2Sc2ccc3c(/C=C/c4ccccn4)n[nH]c3c2)n[nH]1`, the “% inhibition” value is recorded as 11%. In the case of `CC(C)CC(C)NC(=O)c1ccccc1Sc1ccc2c(/C=C/c3ccccn3)n[nH]c2c1` (stereo not shown), the “% inhibition … of HUVEC” value is, setting by setting: under setting [1], 55%; under setting [2], 50%.

Regarding `CN1CCCC1CCNC(=O)c1ccccc1Sc1ccc2c(/C=C/c3ccccn3)n[nH]c2c1` (stereo not shown), the “% inhibition … of HUVEC” value under setting [1] is recorded as 30% and the “% inhibition … of HUVEC” value under setting [2] was found to be 23%. `CCCCOCCCNC(=O)c1ccccc1Sc1ccc2c(/C=C/c3ccccn3)n[nH]c2c1`: the “% inhibition” value is listed as −12%. On the same count and under the same terms, for `CCOC(=O)c1ccccc1NC(=O)c1ccccc1Sc1ccc2c(/C=C/c3ccccn3)n[nH]c2c1` the value was −4%; for `COC(=O)c1ccc(NC(=O)c2ccccc2Sc2ccc3c(/C=C/c4ccccn4)n[nH]c3c2)o1`, −1%.

Consider `O=C(NCc1ccc(Cl)cc1)c1ccccc1Sc1ccc2c(/C=C/c3ccccn3)n[nH]c2c1`, for which the “% inhibition” value was 4%. As for `Cc1cc(O)ccc1NC(=O)c1ccccc1Sc1ccc2c(/C=C/c3ccccn3)n[nH]c2c1`, the “% inhibition” value stood at 12%. In the case of `O=C(NCC1OCCO1)c1ccccc1Sc1ccc2c(/C=C/c3ccccn3)n[nH]c2c1`, the “% inhibition … of HUVEC” value by setting is: under setting [1], 35%; under setting [2], 63%. For `O=C(Nc1nnc(C2CC2)s1)c1ccccc1Sc1ccc2c(/C=C/c3ccccn3)n[nH]c2c1`, the “% inhibition” value is recorded as −20%.

With `Nc1nc(NC(=O)c2ccccc2Sc2ccc3c(/C=C/c4ccccn4)n[nH]c3c2)n[nH]1`, the “% inhibition … of HUVEC” value reads like this: under setting [1], −6%; under setting [2], 41%. In the case of `CC(=O)N1CCN(C(=O)c2ccc3c(-c4nc5ccccc5[nH]4)n[nH]c3c2)CC1`, the “% inhibition … of HUVEC” value by setting is: under setting [3], 5%; under setting [4], 7%; under setting [5], 23%. For `O=C(Nc1cc(O)nc(O)n1)c1ccccc1Sc1ccc2c(/C=C/c3ccccn3)n[nH]c2c1`, the “% inhibition” value was found to be 3%. Consider `Cc1ccc(CNC(=O)c2ccccc2Sc2ccc3c(/C=C/c4ccccn4)n[nH]c3c2)cc1Cl`, for which the “% inhibition” value is listed as −16%.

Consider `O=C(NCCc1ccncc1)c1ccccc1Sc1ccc2c(/C=C/c3ccccn3)n[nH]c2c1`, for which the “% inhibition … of HUVEC” value amounted to 18% under setting [1] and 22% under setting [2]. With `Cc1cccnc1NC(=O)c1ccccc1Sc1ccc2c(/C=C/c3ccccn3)n[nH]c2c1`, the “% inhibition” value is on record as −18%. The same measure, in the same setting: the value for `O=C(Nc1ccccc1CCO)c1ccccc1Sc1ccc2c(/C=C/c3ccccn3)n[nH]c2c1` was 10%; that for `Cc1ccc(O)c(NC(=O)c2ccccc2Sc2ccc3c(/C=C/c4ccccn4)n[nH]c3c2)c1` was −1%; that for `O=C(NCc1cccc2ccccc12)c1ccccc1Sc1ccc2c(/C=C/c3ccccn3)n[nH]c2c1` was 5%. For `O=C(NCCSCCO)c1ccccc1Sc1ccc2c(/C=C/c3ccccn3)n[nH]c2c1`, the “% inhibition” value was −31%. The same measure, in the same setting: for `O=C(Nc1ccc(Cl)nn1)c1ccccc1Sc1ccc2c(/C=C/c3ccccn3)n[nH]c2c1` the value was −21%; for `O=C(Nc1ccc2cccc(O)c2n1)c1ccccc1Sc1ccc2c(/C=C/c3ccccn3)n[nH]c2c1`, 33%. With `O=C(Nc1cc(O)c2ccccc2n1)c1ccccc1Sc1ccc2c(/C=C/c3ccccn3)n[nH]c2c1`, the “% inhibition” value was determined as 4%. `O=C(NC1CCSC1=O)c1ccccc1Sc1ccc2c(/C=C/c3ccccn3)n[nH]c2c1` (stereo not shown) [drawing 1141]: the “% inhibition” value is −8%. Take `COCCCNC(=O)c1ccccc1Sc1ccc2c(/C=C/c3ccccn3)n[nH]c2c1`: the “% inhibition … of HUVEC” value came out at 26% under setting [1] and 31% under setting [2].

For `CC(C)[C@@H](CO)NC(=O)c1ccccc1Sc1ccc2c(/C=C/c3ccccn3)n[nH]c2c1`, the “% inhibition” value is listed as −19%. The same measure, in the same setting: the value for `CC(C)=CCC/C(C)=C/CNC(=O)c1ccccc1Sc1ccc2c(/C=C/c3ccccn3)n[nH]c2c1` was −22%. On to `CC1C(=O)NCCN1C(=O)c1ccc2c(-c3nc4ccccc4[nH]3)n[nH]c2c1` (stereo not shown), for which the “% inhibition … of HUVEC” value is recorded as 12% under setting [3], −3% under setting [4] and 40% under setting [5]. For `CCc1ccc(CCNC(=O)c2ccccc2Sc2ccc3c(/C=C/c4ccccn4)n[nH]c3c2)cc1`, the “% inhibition” value was −11%. For `O=C(Nc1cccc(OC(F)(F)F)c1)c1ccccc1Sc1ccc2c(/C=C/c3ccccn3)n[nH]c2c1`, the “% inhibition” value is 5%. On the same count and under the same terms, the value for `Nc1cccc(F)c1CNC(=O)c1ccccc1Sc1ccc2c(/C=C/c3ccccn3)n[nH]c2c1` was 11%; that for `NC(=O)c1ccccc1NC(=O)c1ccccc1Sc1ccc2c(/C=C/c3ccccn3)n[nH]c2c1` was 7%. For `CCCC(CCC)NC(=O)c1ccccc1Sc1ccc2c(/C=C/c3ccccn3)n[nH]c2c1`, the “% inhibition … of HUVEC” value runs as follows: under setting [1], 1%; under setting [2], 52%.

As for `O=C(Nc1ccc2[nH]c(=O)[nH]c2c1)c1ccc2c(-c3nc4ccccc4[nH]3)n[nH]c2c1` [drawing 582], the “% inhibition … of HUVEC” value is listed as 42% under setting [3], 6% under setting [4] and 13% under setting [5]. In the case of `O=C(NCCCN1CCCC1=O)c1ccccc1Sc1ccc2c(/C=C/c3ccccn3)n[nH]c2c1`, the “% inhibition … of HUVEC” value under setting [1] amounted to 25% and the “% inhibition … of HUVEC” value under setting [2] stood at 35%.

Turning to `Cc1cc(C)nc(NC(=O)c2ccccc2Sc2ccc3c(/C=C/c4ccccn4)n[nH]c3c2)c1`, the “% inhibition” value worked out at 3%.
